Measured values as given in US20230041211A1, “DECREASING TOXICITY OF TERPENES AND INCREASING THE PRODUCTION POTENTIAL IN MICRO-ORGANISMS” (BASF SE, priority 2019, published 2023).
≈ marks a conversion by molar mass, not a printed value. Where two headings read alike, the source gives them in different places.

Experiments:
[1] = system: Escherichia coli, Saccharomyces cerevisae, Pseudomonas putida and Rhodobacter sphaeroides
[2] = cited from earlier work; for loqP: Table 3B
[3] = system: E. coli MG1655 wild-type; assay: Toxicity assay: growth rate of wild-type E. coli in M9 medium with the chemical in sealed baffled flasks; format: cell-based, Escherichia coli
Protocol: The tolerance against Isoprenol was confirmed with the established toxicity assay of growth in M9 medium with Isoprenol in baffled sealed 250 mL flasks. To investigate the mode of action of the tolerance trait, chemicals with similar properties were tested.
(§1) On the next day 25 mL of medium in 250 mL baffled flasks with Teflon® liner screw cabs were inoculated to an OD of 0.2 and incubated at 200 rpm. The terpenoid stress was added to the specified concentration. Before the cell-culture reached stationary phase, part of the culture was transferred to fresh medium in a fresh flask with the terpenoid. The mean culture growth rate was determined by comparing the initial OD and the culture OD before passaging.
(§2) Growth rates were determined by transforming the OD-values of each experiment with the natural logarithm. In the linear regime of growth a line was fit to the data and the slope was determined, which is equal to the growth rate. Growth rates were determined for each flask individually and the growth rate of each condition is given as the mean and standard deviation of three biological replicates.
A linear interpolation of the two data-points adjacent to the half-maximal growth rate (MIC50) was used to estimate the compound concentration of half-maximal growth rate. If the corresponding standard-deviations of the growth rates were available the standard error of the MIC50 was computed by error propagation.

[4] = system: adapted E. coli strains (Isolate A to C, Mut T6 A); format: cell-based, Escherichia coli; conditions: Isobutanol 65 mM, Prenol 40 mM, Butanol 7.5 g/L, Vanillin 1 g/L; Geraniol concentration not given
Protocol: To investigate the mode of action of the tolerance trait, chemicals with similar properties were tested.
To assess the limitations of the tolerance mechanism, tolerance against three additional chemicals was tested.
as §1, §2

[5] = cited from earlier work
[6] = system: Escherichia coli, Saccharomyces cerevisae, Pseudomonas putida and Rhodobacter sphaeroides; assay: Toxicity of terpenes on unmodified organisms; conditions: all four organisms
[7] = system: engineered E. coli strains (ΔyghB, ΔmarC, Δrob, rob H48fs); format: cell-based, Escherichia coli
Source text: We began the investigation of the mutations discovered in the final phenotype by testing the knock-out strains of the most promising gene-targets from the readily available Keio collection. The Keio collection is implemented in the BW25113 background which we subsequently used as reference for tolerance testing when using strains derived from the Keio collection. Compared to MG1655 the BW25113 strain is auxotroph for arabinose and rhamnose. Since glucose is the sole carbon source in our growth-assays this should not impact the physiology of tolerance.
Knock-out strains were constructed by amplification of resistance cassette with 25 bp overlap from corresponding Keio strains (Primers 3+4, 5+6 and 7+8). The PCR products carrying a homologous 25 bp sequence and a kanamycin resistance were used to transform E. coli MG1655 using standard procedures (Baba et al., 2006). For over-expression plasmids target genes were amplified with a 25 bp homology to the pAH030 overexpression plasmid. The Plasmid was linearized using the Spel restriction site and the PCR-product containing the gene of interested was inserted using Gibson assembly (Gibson et al., 2009).
Knock out strains were prepared using DNA-fragments isolated from the corresponding Keio collection strains. Recombination was carried out using a standard RED/ET kit (Genebridges Red/ET Kit, 2019).
as §2

[8] = system: E. coli MG1655 wild-type; conditions: cited from earlier work

With `CC1CCC(C(C)C)C(O)C1` (centres unmarked) [Menthol] as the molecule, how does the “toxicity on unmodified organisms” value [1] read?
The value was “toxic effects”.

What about the loqP [2] of the same molecule?
Its loqP is 3.2.

For `C=C(C)[C@H]1CC=C(C)CC1` [Limonene], which loqP [2] is on record?
Its loqP is 4.571.

For `CC(C)CO` [Isobutanol], which EC50 ([3]; Escherichia coli, MG1655, wild-type strain, read-out: concentration where growth is 50% inhibited (EC50), half maximal inhibitory concentration) is on record?
Its EC50 is 65 mM.

And the “tolerance of adapted strains compared to wild-type” value [4]?
The value was “All strains exhibit an increased tolerance”.

What about the loqP [2] of the same molecule?
The loqP was 0.8.

With `CC(C)=CCC/C(C)=C/CO` [Geraniol] as the molecule, how does the “tolerance of adapted strains compared to wild-type” value [4] read?
Its value is “highly elevated susceptibility”.

What about the “Solubility” value ([5]; solubility in water, Table 3B) of the same molecule?
Its value is 0.68 g/L (≈ 4.41 mM).

And the “toxicity on unmodified organisms” value [6]?
The value was “toxic effects”.

Which loqP [2] does the source give for `CC(=O)CCc1ccc(O)cc1` [4-(4-Hydroxyphenyl)-2-butanone] here?
The loqP was 1.5.

For `COc1cc(C(=O)O)ccc1O` [Vanillic Acid], which loqP [2] is on record?
The loqP was 1.43.

Which loqP [2] does the source give for `CC(C)=CCCC(C)=CCCC(C)=CCO` [Farnesol] here?
Its loqP is 4.16.

And the “Solubility” value ([5]; solubility in water, Table 3B)?
The value was 0.05 g/L (≈ 0.225 mM).

Which results are given for Butanol?
Wild-type growth rate ([3]; 5 g/L Butanol (FIG. 9B)): 0.25 h⁻¹; experimental EC50 / half-maximal growth repression ([3]; wild-type E. coli, own experimental set-up): ~5 g/L; tolerance of adapted strains compared to wild-type [4]: increased tolerance; increased growth rate ([7]; double knock out rob and marC with rob H48fs expression, 5 g/L Butanol): 41%; increase of tolerance (growth rate vs wild-type) ([7]; ΔmarC, 5 g/L Butanol): 32%; increase of tolerance (growth rate vs wild-type) ([7]; Δrob with leaky rob H48frameshift expression, 5 g/L Butanol): 34%; increase of tolerance (growth rate vs wild-type) ([7]; Δrob, 5 g/L Butanol): about 25%; increase of relative fitness ([7]; ΔyghB complemented with yghB plasmid, 0 μM IPTG, 5 g/L Butanol): about 11%; effect of yghB knock-out on tolerance ([7]; ΔyghB, 5 g/L Butanol): decreases tolerance; literature value for half-maximal concentration [8]: 7.5 g/L

What does the source list for `CC(C)=CCCC(C)=CC=O` [Citral]?
loqP [2]: 2.9; toxicity on unmodified organisms [6]: toxic effects

Which loqP [2] does the source give for `CCCC(=O)OCC` [Ethyl butanoate] here?
Its loqP is 1.77.

For `C=CC(C)(O)CCC=C(C)C` (centres unmarked) [Linalool], which “Solubility” value ([5]; solubility in water, Table 3B) is on record?
Its value is 1.5 g/L (≈ 9.72 mM).

With `C=C(C)C1CC=C(C)C(=O)C1` (single isomer, unassigned; (-)) [(-)-Carvone] as the molecule, how does the loqP [2] read?
Its loqP is 2.71.

What does the source list for `C=C(C)CCO` [Isoprenol, 3-methyl-3-buten-1-ol]?
growth of wild-type E. coli cells ([3]; 60 to 80 mM Isoprenol concentration regime): not able to grow; decrease of fitness ([7]; ΔyghB strain of the Keio collection (BW25113), Isoprenol stress): about 30%; loqP [2]: 0.89; logP ([2]; Table A): 0.89; Solubility ([5]; Table A): 90 g/L (≈ 1040 mM); Solubility ([5]; solubility in water, Table 3B): 90 g/L (≈ 1040 mM); toxicity on unmodified organisms [6]: toxic effects

What does the source list for `COc1cc(C=O)ccc1O` [Vanillin]?
Wild-type growth rate ([3]; 1.5 g/L Vanillin (FIG. 10B)): 0.23 h⁻¹; EC50 ([3]; Escherichia coli, MG1655, wild-type E. coli, own experimental set-up, read-out: experimental EC50 / half-maximal growth repression): 1000 to 1500 µg/mL; growth rate reduced to fraction of wild-type growth rate (no complete growth inhibition) ([3]; wild-type E. coli MG1655, concentration regime tested (FIG. 10A)): ⅓; tolerance of adapted strains compared to wild-type [4]: significantly increased growth rate; effect of marC knock-out under Vanillin stress ([7]; ΔmarC, 1.5 g/L Vanillin): no significant positive effect; increase of tolerance compared to wild-type ([7]; Δrob complemented with rob H48fs, 1.5 g/L Vanillin): 36%; increased growth rate ([7]; Δrob rob H48fs plus marC knock-out, 1.5 g/L Vanillin): 28%; increase of growth rate ([7]; Δrob, 1.5 g/L Vanillin): 8%; additional faster growth ([7]; ΔyghB complemented with yghB expression, versus ΔyghB, 1.5 g/L Vanillin): 3%; increase of growth rate ([7]; ΔyghB, 1.5 g/L Vanillin): 18%; Solubility ([5]; solubility in water, Table 3B): 10 g/L (≈ 65.7 mM)

With `CC(C)=CCO` [Prenol] as the molecule, how does the EC50 ([3]; wild-type strain, read-out: concentration where growth is 50% inhibited (EC50), half maximal inhibitory concentration) read?
The EC50 was 40 mM.

And the “tolerance of adapted strains compared to wild-type” value [4]?
Its value is “only strain isolate A exhibited an increased tolerance”.

What about the loqP [2] of the same molecule?
Its loqP is 0.91.

For `CCOC(=O)CC` [Ethyl Propionate], which loqP [2] is on record?
Its loqP is 1.21.
